Laboratory results published in patent publication US9505800B2, “Extended triterpene derivatives” (Myrexis, Inc., priority 2006, dated 2016).

Key:
HIV-1IIIB virus = experiment: Determination of a compound's EC50 on MT-2 cell line (HIV-1IIIB infection, XTT/PMS viability read-out); type: cell-based; settings: Table 1; for TI: TI = CC50:EC50 ratio
Protocol: Drug Preparation—The EC50 value for each compound is determined prior to determining the combination index. Each compound is tested in replicates of three, starting at a final concentration of 1 ug/mL. Compounds are dissolved in DMSO at a stock concentration of 10 mg/mL. Test compounds are serially diluted (4-fold dilutions) in a 96-flat-bottom-well plate. The initial working concentration of compound is 4× the desired final concentration. The final volume of drug per well is 45 uL. Included as controls are at least four wells containing cells only and four containing cells and virus in the absence of drug.
Virus Preparation—The HIV-1IIIB virus generated in the H9 cell line is diluted in culture media. The virus is used at a dilution that will cause 50%-75% cell death in day five post-infection as determined by XTT/PMS vital dye. Virus (45 uL) is added to all wells containing drug as well as the control wells.
Cell Preparation—MT-2 cells are added to each well at a volume of 90 uL per well at a cell concentration of 3.3×10^5 cells per mL. MT-2 cells are human T-cell leukemia cells isolated from cord blood lymphocytes and co-cultured with cells from patients with adult T-cell leukemia. […]
Assay—Culture plates are placed in a 37° C., 5% CO2, humidified incubator. […] XTT, (2,3-Bis(2-methoxy-4-nitro-5-sulfophenyl)-2H-tetrazolium-5-carboxanilide) is a yellow tetrazolium salt that, in the presence of dehydrogenase enzymes of metabolically active cells, is reduced to yield a soluble orange formazan dye, which can be measured by absorbance at 490 (or 450) nm in a microplate reader. […] For each plate to be analyzed, 5 mL of XTT/PMS is needed. […] Plates are placed uncovered into a 5% CO2, 37° C. incubator and read on plate reader at a wavelength of 450 nm after four hour incubation.
Data Compilation—The percent inhibition at a given concentration is determined by using the following formula: (average OD-virus control)/(cell control—virus control). The EC50 for each compound is calculated from the linear regression of percent inhibition.

[1] = CC50 (cytotoxicity) reported beside the EC50 values; method not described; settings: human, MT-2 cells
in vitro = settings: human

Row | Structure (SMILES) | TI (HIV-1IIIB virus) | CC50 [1] [µM] | EC50 (HIV-1IIIB virus; Human immunodeficiency virus 1, MT2, 120 h, extended compound vs non-extended analog, MT-2 cells, HIV-1IIIB, day 5 post infection, XTT/PMS) [µM] | CC50 (in vitro) [µM]
1 | C=C(C)[C@@H]1CC[C@]2(CN3CCOCC3)CC[C@]3(C)[C@H](CC[C@@H]4[C@@]5(C)CC[C@H](OC(=O)CC(C)(C)CC(=O)O)C(C)(C)[C@@H]5CC[C@]43C)[C@@H]12 | 135 | 10.4 | – | –
2 | C=C(C)[C@@H]1CC[C@]2(CCN3CCOCC3)CC[C@]3(C)[C@H](CC[C@@H]4[C@@]5(C)CC[C@H](OC(=O)CC(C)(C)CC(=O)O)C(C)(C)[C@@H]5CC[C@]43C)[C@@H]12 | 3387 | – | 0.0221 | 74.8
